Experiments:
[1] = Infusion vehicle (5% dextrose) compatibility; assay type: physicochemical; conditions: ambient
Procedure: A brincidofovir formulation comprising 10 mg/mL brincidofovir, 200 mM sodium phosphate, and 69 mM dextrose (pH=8.0) was diluted with the testing infusion vehicle (5% dextrose solution) to yield c(BCV)=0.5 and 1.0 mg/mL solutions. The diluted solutions were stored at ambient conditions, and samples were collected at initially at the beginning of the experiment, and after 2 h, 8 h, and 24 h and evaluated for appearance, pH, and recovery of c(BCV) (via HPLC). […] Detailed results of the study are summarized below (Table 18).
The Formulation 3a was diluted with the infusion vehicle (5% dextrose) solution to yield c(BCV)=0.5 mg/mL and 1.0 mg/mL solutions. The appearance, pH, and brincidofovir recovery (determined via HPLC) were evaluated at the time of preparing the test solution (to), and after 2 h (t2h), 8 h (t8h), and 24 h (t24h)

rat whole blood = assay: Hemolytic potential, cyanmethemoglobin method, rat whole blood; assay type: cell-based; conditions: for Estimated % Hemolysis: based on normal rat hemoglobin 13 g/dL; for Mean HgB Concentration: interference control, Phase 1
Procedure: Each concentration of test item for the rat was mixed separately in a 1:4 ratio with rat whole blood while each concentration of test item for the human was mixed separately in a 1:4 ratio with human whole blood. These samples plus control samples [vehicle control (vehicle+whole blood, 1 for rat and 1 for humans), positive control (1% Saponin+whole blood), untreated whole blood control and negative control (saline+whole blood) were analyzed for hemolysis (supernatant hemoglobin concentration).
(§1) The rat and human whole blood samples were incubated in test or control items at 37±1° C. for 20 minutes and then immediately (within 2 minutes) centrifuged at 3500±100 rpm (2740 g) at room temperature for 5-10 minutes. The supernatant was extracted and subjected to a hemoglobin analysis using the cyanmethemoglobin method employed on the Siemens Advia 120 hematology analyzer. If the test item has a potential for causing hemolysis, then hemoglobin released from lysed red blood cells into the plasma supernatant can be quantified via the reaction of heme iron in solution being oxidized from a ferrous to a ferric state in the presence of potassium cyanide. The reaction results in the formation of methemoglobin, which then combines with cyanide to form a stable cyanmethemoglobin. When measured spectrophotometrically at 546 nm the absorbance of cyanmethemoglobin follows Beer's Law and is directly proportional to the concentration of hemoglobin released into solution.
as §1, with “Without wishing to be bound by theory, if” for “If”

[2] = PBMC PK of CDV-PP following IV and oral suspension BCV; assay type: in vivo, human; conditions: BCV 50 mg, 2- or 4-h IV infusion
Procedure: Two single dose BCV studies in healthy subjects contributed data for this analysis. The first study was a 2-period crossover bioequivalence study that enrolled 24 subjects who received two formulations of BCV oral suspension 100 mg fasted, one in each period. Data from 12 subjects who had PBMCs collected in Period 1 were included in this analysis; these subjects were 100% female, 31-59 years, and 58-88 kg. The second study, outlined above, enrolled 40 subjects who received IV BCV or placebo. Data from 18 subjects who received BCV 50 mg as either a 2-h or 4-h IV infusion were included in this analysis; these subjects were 100% male, 18-46 years, 64-106 kg. Serial PBMC samples were collected over 14 days and assayed by HPLC-MS-MS. PBMC CDV-PP PK parameters were determined by non-compartmental analysis.

[3] = c(BCV) 0.5 mg/mL in 5% dextrose, 0 h
[4] = c(BCV) 0.5 mg/mL in 5% dextrose, 2 h
[5] = c(BCV) 0.5 mg/mL in 5% dextrose, 8 h
[6] = c(BCV) 0.5 mg/mL in 5% dextrose, 24 h
[7] = c(BCV) 1.0 mg/mL in 5% dextrose, 0 h
[8] = c(BCV) 1.0 mg/mL in 5% dextrose, 2 h
[9] = c(BCV) 1.0 mg/mL in 5% dextrose, 8 h
[10] = c(BCV) 1.0 mg/mL in 5% dextrose, 24 h

## CCCCCCCCCCCCCCCCOCCCOP(=O)(O)CO[C@H](CO)Cn1ccc(N)nc1=O [Brincidofovir]
[1]; [3]
  Appearance: Clear, colorless
  Measured pH: 8.2
  Observed c(BCV): 0.51 mg/mL
[1]; [4]
  Appearance: Clear, colorless
  Measured pH: 8.3
  Observed c(BCV): 0.51 mg/mL
[1]; [5]
  Appearance: Clear, colorless
  Measured pH: 8.2
  Observed c(BCV): 0.51 mg/mL
[1]; [6]
  Appearance: Clear, colorless
  Measured pH: 8.2
  Observed c(BCV): 0.49 mg/mL
[1]; [7]
  Appearance: Clear, colorless
  Measured pH: 8.2
  Observed c(BCV): 1.0 mg/mL
[1]; [8]
  Appearance: Clear, colorless
  Measured pH: 8.2
  Observed c(BCV): 1.0 mg/mL
[1]; [9]
  Appearance: Clear, colorless
  Measured pH: 8.2
  Observed c(BCV): 1.0 mg/mL
[1]; [10]
  Appearance: Clear, colorless
  Measured pH: 8.2
  Observed c(BCV): 1.0 mg/mL
Rat whole blood
  Brincidofovir concentration with in vitro evidence of hemolysis: above 0.75 mg/mL
Rat whole blood; 0.2 mg/mL
  Hemolysis classification: non-hemolytic (Formulations with a hemolysis value of <10% are considered to be non-hemolytic)
Rat whole blood; 0.5 mg/mL ([…])
  Calculated % hemolysis: 2.4%
Rat whole blood; 1.6 mg/mL ([…])
  Calculated % hemolysis: 13.0%
Rat whole blood; 0.5 and 1.6 mg/mL
  Hemolysis classification: not considered a hemolytic risk
Rat whole blood; Tube 1B: Test Item (0.5 mg/mL) + rat whole blood
  Estimated % Hemolysis: 2.4%
Rat whole blood; Tube 1C: Test Item (1.6 mg/mL) + rat whole blood
  Estimated % Hemolysis: 13.0%
Rat whole blood; Tube 2A: Test Item (0.2 mg/mL) + saline
  Mean HgB Concentration: 0.0 g/dL
Rat whole blood; Tube 2B: Test Item (0.5 mg/mL) + saline
  Mean HgB Concentration: 0.0 g/dL
Rat whole blood; Tube 2C: Test Item (1.6 mg/mL) + saline
  Mean HgB Concentration: 0.0 g/dL
[2]
  Intracellular CDV-PP exposure vs BCV 100 mg oral suspension: comparable

— patent publication US20170368082A1, “FORMULATIONS OF BRINCIDOFOVIR” (priority 2016, published 2017)
